In PubChem BioAssay (NCI) one finds TGI and GI50 data, which are given here for nine compounds.

Test systems include 786-0 renal; CCRF-CEM leukemia; HCC-2998 colon; HT29 colon; NCI-H460 lung; OVCAR-4 ovarian; RXF 393 renal; SF-539 CNS; SK-MEL-2 melanoma; SK-MEL-5 melanoma.
Experiment in all cases: growth of human tumour cells (NCI), 48 h

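Dose response: 5 concentrations. Exposure: 48 h. Format: 96-well plates. Endpoint: linear interpolation; highest concentration if not reached. The concentration for 50% growth inhibition is given as GI50. TGI: concentration producing complete growth inhibition.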 Where only a bound is given, the exact number is not on record here.

Take `CC#CC(=O)SCCNC(=O)CC`: the TGI in the test with 786-0 renal is > 10 µM; in the test on CCRF-CEM leukemia it was > 8.72 µM; in the test with HCC-2998 colon it was > 10 µM; with HT29 colon, > 10 µM; in the test with NCI-H460 lung, > 10 µM; with OVCAR-4 ovarian, > 10 µM. The TGI in the test on RXF 393 renal was > 9.55 µM; in the test on SF-539 CNS it was > 10 µM; in the test on SK-MEL-2 melanoma it was > 10 µM; in the test with SK-MEL-5 melanoma it was > 10 µM.
Turning to `CCOc1ccccc1N=Nc1c(C)[nH]n(-c2nc(-c3ccccc3)cs2)c1=O`, the GI50 is 35.4 µM in the test on 786-0 renal; > 100 µM with CCRF-CEM leukemia; > 100 µM in the test with HCC-2998 colon; 97.9 µM with HT29 colon; 37.5 µM in the test with NCI-H460 lung; 25 µM in the test on OVCAR-4 ovarian. Besides, the GI50 is 16.4 µM in the test with RXF 393 renal, 27.5 µM in the test with SF-539 CNS, 27.3 µM in the test on SK-MEL-2 melanoma and 41.6 µM with SK-MEL-5 melanoma. The TGI in the test on 786-0 renal is > 100 µM; with CCRF-CEM leukemia, > 100 µM; in the test with HCC-2998 colon, > 100 µM; in the test on HT29 colon it was > 100 µM; in the test with NCI-H460 lung it was > 100 µM; in the test on OVCAR-4 ovarian, > 84.5 µM. The TGI in the test on RXF 393 renal is 38.4 µM; with SF-539 CNS, > 100 µM; in the test with SK-MEL-2 melanoma, > 100 µM; in the test with SK-MEL-5 melanoma it was > 100 µM.
`O=[N+]([O-])c1cccc([As]=[As]c2cccc([N+](=O)[O-])c2)c1` (configuration not stated): the GI50 with 786-0 renal is 0.0961 µM; with CCRF-CEM leukemia it was 0.0273 µM; with HCC-2998 colon, 0.13 µM; in the test on HT29 colon it was 0.159 µM; with NCI-H460 lung, 0.225 µM; in the test on OVCAR-4 ovarian, 0.0921 µM. For the same compound, the GI50 was 0.0898 µM in the test with RXF 393 renal, 0.0737 µM in the test with SF-539 CNS, 0.13 µM with SK-MEL-2 melanoma and 0.162 µM in the test with SK-MEL-5 melanoma. Moreover, the TGI worked out at 0.222 µM in the test on 786-0 renal; 0.112 µM in the test with CCRF-CEM leukemia; 0.275 µM in the test with HCC-2998 colon; 0.329 µM in the test with HT29 colon; 0.5 µM in the test on NCI-H460 lung; 0.308 µM in the test with OVCAR-4 ovarian. For the same compound, the TGI with RXF 393 renal worked out at 0.23 µM; in the test with SF-539 CNS, 0.201 µM; in the test with SK-MEL-2 melanoma, 0.272 µM; with SK-MEL-5 melanoma, 0.324 µM.
`CC(C)(O)CC(=O)NCCn1ccc2ncnc(Nc3ccc(Oc4cccc(C(F)(F)F)c4)c(Cl)c3)c21`: the GI50 in the test with 786-0 renal was 4.01 µM; in the test on CCRF-CEM leukemia, 3.26 µM; with HCC-2998 colon, 3.85 µM; in the test on HT29 colon, 3.83 µM; in the test with NCI-H460 lung, 3.37 µM; with OVCAR-4 ovarian, 5.22 µM. Moreover, the GI50 is 1.87 µM in the test with RXF 393 renal, 4.03 µM in the test with SF-539 CNS, 8.66 µM in the test on SK-MEL-2 melanoma and 2.84 µM in the test with SK-MEL-5 melanoma. For the same compound, the TGI in the test on 786-0 renal, in the test with CCRF-CEM leukemia, in the test on HCC-2998 colon, with HT29 colon, in the test with NCI-H460 lung and with OVCAR-4 ovarian was > 10 µM throughout. Moreover, the TGI was 4.31 µM in the test with RXF 393 renal, > 10 µM in the test with SF-539 CNS, > 10 µM in the test on SK-MEL-2 melanoma and > 10 µM in the test with SK-MEL-5 melanoma.
Regarding `CCc1cccc(C)c1NC(=O)C(=O)Cc1nc2ccccc2s1`, the TGI with 786-0 renal, in the test with CCRF-CEM leukemia, with HCC-2998 colon, in the test with HT29 colon, in the test with NCI-H460 lung and in the test with OVCAR-4 ovarian was > 100 µM each time. In addition, the TGI in the test on RXF 393 renal, with SF-539 CNS, in the test with SK-MEL-2 melanoma and with SK-MEL-5 melanoma was > 100 µM throughout.
As for `CCN(CC)Cc1ccc(Nc2nccc(-c3cnn4ncccc34)n2)cc1`, the GI50 was 0.0133 µM with 786-0 renal; 0.0148 µM with CCRF-CEM leukemia; 0.0333 µM in the test with HCC-2998 colon; 0.0121 µM in the test with HT29 colon; 0.0169 µM in the test on NCI-H460 lung; 0.0766 µM in the test on OVCAR-4 ovarian. For the same compound, the GI50 with RXF 393 renal was 0.0063 µM; in the test on SF-539 CNS, 0.00973 µM; with SK-MEL-2 melanoma it was 0.0208 µM; in the test with SK-MEL-5 melanoma, 0.0419 µM. Also, the TGI is > 12.9 µM in the test with 786-0 renal; > 25 µM in the test with CCRF-CEM leukemia; 0.129 µM in the test on HCC-2998 colon; 0.0984 µM in the test with HT29 colon; 2.99 µM in the test on NCI-H460 lung; 9.99 µM in the test on OVCAR-4 ovarian. For the same compound, the TGI in the test with RXF 393 renal stood at 0.0147 µM; with SF-539 CNS, 0.0781 µM; in the test on SK-MEL-2 melanoma it was 0.0704 µM; with SK-MEL-5 melanoma, 0.215 µM.
Regarding `Cc1ccc(Nc2nc(C)c(C(/C=C/c3ccc(/C=C/C(=N/NC(=O)C[n+]4ccccc4)c4sc(Nc5ccc(C)cc5[N+](=O)[O-])nc4C)cc3)=N\NC(=O)C[n+]3ccccc3)s2)c([N+](=O)[O-])c1`, the TGI in the test on 786-0 renal, in the test with CCRF-CEM leukemia, with HCC-2998 colon, in the test with HT29 colon, in the test on NCI-H460 lung and in the test on OVCAR-4 ovarian was > 100 µM throughout. The TGI with RXF 393 renal, in the test with SF-539 CNS and in the test on SK-MEL-2 melanoma was > 100 µM throughout.
In the case of `O=CN/C=C/c1ccc(O)c(O)c1`, the TGI with 786-0 renal, with CCRF-CEM leukemia, in the test with HCC-2998 colon, in the test with HT29 colon, in the test on NCI-H460 lung and in the test with OVCAR-4 ovarian was > 100 µM each time. The TGI with RXF 393 renal, with SF-539 CNS and with SK-MEL-2 melanoma was > 100 µM throughout.
`C=C1c2[nH]c3c([N+](=O)[O-])c(OC)ccc3c2CCN1C(C)=O`: the TGI with 786-0 renal, in the test with CCRF-CEM leukemia, with HCC-2998 colon, in the test on HT29 colon, in the test with NCI-H460 lung and in the test on OVCAR-4 ovarian was > 100 µM each time. Further, the TGI in the test on RXF 393 renal, with SF-539 CNS and in the test with SK-MEL-2 melanoma was > 100 µM each time.
